Assay results as given in ChEMBL document CHEMBL1201862, “PubChem BioAssay data set” (2004).
The source made the active and inactive calls.

Key:
Cytochrome P450 2C19 = Cytochrome P450 2C19 (Homo sapiens, UniProt P33261); assay: Cytochrome panel assay with activity outcomes. Panel member name: p450-cyp2c19 Compounds with AC50 equal or less than 10 uM are considered active; assay type: functional; conditions: read-out: AC50
[1] = target: T1, Sentrin-specific protease 1 (Homo sapiens, UniProt Q9P0U3); assay: potency of human SENP1 inhibitors, dose response, biochemical, kinetic FRET (AID 651697); assay type: functional; conditions: read-out: IC50_Mean
T1 sequence (Q9P0U3 whole entry): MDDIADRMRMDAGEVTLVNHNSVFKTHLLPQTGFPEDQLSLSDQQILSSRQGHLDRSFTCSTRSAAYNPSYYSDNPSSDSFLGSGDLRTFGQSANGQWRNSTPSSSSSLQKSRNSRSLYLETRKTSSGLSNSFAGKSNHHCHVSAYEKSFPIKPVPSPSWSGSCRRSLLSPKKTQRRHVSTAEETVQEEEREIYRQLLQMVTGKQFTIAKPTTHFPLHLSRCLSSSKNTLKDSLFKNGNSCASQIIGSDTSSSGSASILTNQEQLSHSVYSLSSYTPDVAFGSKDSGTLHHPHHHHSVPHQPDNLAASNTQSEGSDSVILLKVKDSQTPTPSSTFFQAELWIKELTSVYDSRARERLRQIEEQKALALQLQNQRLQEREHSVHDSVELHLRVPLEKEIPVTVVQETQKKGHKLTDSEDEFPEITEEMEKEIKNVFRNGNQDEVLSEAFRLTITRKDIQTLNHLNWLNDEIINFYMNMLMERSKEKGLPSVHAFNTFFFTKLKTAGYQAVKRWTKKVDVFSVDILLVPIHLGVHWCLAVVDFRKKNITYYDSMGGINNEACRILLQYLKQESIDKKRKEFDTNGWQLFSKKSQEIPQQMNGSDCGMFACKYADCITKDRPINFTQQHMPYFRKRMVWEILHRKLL

[2] = target: T1, Sentrin-specific protease 1; assay: Dose response confirmation of small molecule inhibitors of the catalytic domain of the SUMO protease, SENP1 in a FRET assay.; assay type: functional; conditions: read-out: IC50_Mean
Cytochrome P450 2D6 = Cytochrome P450 2D6 (Homo sapiens, UniProt P10635);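 further: CYP2D6 member of a cytochrome P450 panel assay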
Sequence of Cytochrome P450 2D6 (P10635 whole entry): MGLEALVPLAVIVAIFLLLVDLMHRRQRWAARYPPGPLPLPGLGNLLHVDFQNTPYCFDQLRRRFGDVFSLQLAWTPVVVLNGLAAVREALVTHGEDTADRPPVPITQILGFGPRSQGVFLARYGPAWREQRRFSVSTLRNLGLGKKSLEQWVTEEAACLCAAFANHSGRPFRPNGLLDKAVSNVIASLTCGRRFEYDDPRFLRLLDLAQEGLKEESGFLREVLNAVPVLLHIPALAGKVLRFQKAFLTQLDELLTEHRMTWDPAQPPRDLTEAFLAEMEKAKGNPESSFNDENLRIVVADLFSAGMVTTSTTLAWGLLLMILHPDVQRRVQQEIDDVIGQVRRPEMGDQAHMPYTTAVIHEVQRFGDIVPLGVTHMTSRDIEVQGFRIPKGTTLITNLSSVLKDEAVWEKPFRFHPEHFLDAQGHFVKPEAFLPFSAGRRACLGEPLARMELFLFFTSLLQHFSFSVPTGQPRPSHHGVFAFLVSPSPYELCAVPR

Cytochrome P450 2C9 = Cytochrome P450 2C9 (Homo sapiens, UniProt P11712)
Sequence of Cytochrome P450 2C9 (P11712 whole entry, the tested form may be a part): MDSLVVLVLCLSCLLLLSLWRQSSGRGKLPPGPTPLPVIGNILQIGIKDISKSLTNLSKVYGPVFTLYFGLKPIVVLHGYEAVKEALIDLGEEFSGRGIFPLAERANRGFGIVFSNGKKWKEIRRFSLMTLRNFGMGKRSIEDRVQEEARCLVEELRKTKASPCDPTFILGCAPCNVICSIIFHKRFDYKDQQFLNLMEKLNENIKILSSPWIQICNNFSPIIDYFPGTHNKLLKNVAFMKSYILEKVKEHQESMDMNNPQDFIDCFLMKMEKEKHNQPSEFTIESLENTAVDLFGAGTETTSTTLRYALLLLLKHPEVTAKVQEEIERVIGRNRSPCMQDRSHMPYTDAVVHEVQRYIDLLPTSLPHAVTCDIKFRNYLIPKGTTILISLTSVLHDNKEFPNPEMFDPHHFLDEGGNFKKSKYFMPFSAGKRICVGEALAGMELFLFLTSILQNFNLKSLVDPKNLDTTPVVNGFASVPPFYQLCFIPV

[3] = inhibitors of HIV Env-driven cell fusion, dose response, cherry-pick (AID 652057); assay type: functional, cell-based
[4] = ZM109 Env clade C HIV-1 fusion inhibitors, dose response, HeLa effector, CEM target cells, luciferase, cherry-pick (AID 652058); assay type: functional, cell-based
[5] = off-target signal loss in HeLa-CEM21 co-culture – HeLa F-luc CTL cells, cherry-picked, counter-screen for HIV-1 Env fusion inhibitor project, dose response (AID 652040); assay type: functional, cell-based;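 further: potency for signal decrease marking cytotoxic or nonspecific inhibition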
[6] = inhibitors of clade B AD8 Env fusion, dose response, cell-based, cherry-pick (AID 652062); assay type: functional;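 further: luciferase signal from cell-cell fusion driven by HIV-1 clade B AD8 Env; potency is for inhibitors of fusion seen as a drop in luminescence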
HEK293 [7] = assay: cells; conditions: Homo sapiens
HEK293 [8] = assay: cells; conditions: Homo sapiens; remark: listed apart in the source
Large T antigen = Large T antigen (Simian virus 40, UniProt P03070); assay type: functional, Betapolyomavirus macacae;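 further: Confirmatory-stage PubChem screen for compounds that inhibit SV40 T antigen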
Sequence of Large T antigen (P03070 whole entry): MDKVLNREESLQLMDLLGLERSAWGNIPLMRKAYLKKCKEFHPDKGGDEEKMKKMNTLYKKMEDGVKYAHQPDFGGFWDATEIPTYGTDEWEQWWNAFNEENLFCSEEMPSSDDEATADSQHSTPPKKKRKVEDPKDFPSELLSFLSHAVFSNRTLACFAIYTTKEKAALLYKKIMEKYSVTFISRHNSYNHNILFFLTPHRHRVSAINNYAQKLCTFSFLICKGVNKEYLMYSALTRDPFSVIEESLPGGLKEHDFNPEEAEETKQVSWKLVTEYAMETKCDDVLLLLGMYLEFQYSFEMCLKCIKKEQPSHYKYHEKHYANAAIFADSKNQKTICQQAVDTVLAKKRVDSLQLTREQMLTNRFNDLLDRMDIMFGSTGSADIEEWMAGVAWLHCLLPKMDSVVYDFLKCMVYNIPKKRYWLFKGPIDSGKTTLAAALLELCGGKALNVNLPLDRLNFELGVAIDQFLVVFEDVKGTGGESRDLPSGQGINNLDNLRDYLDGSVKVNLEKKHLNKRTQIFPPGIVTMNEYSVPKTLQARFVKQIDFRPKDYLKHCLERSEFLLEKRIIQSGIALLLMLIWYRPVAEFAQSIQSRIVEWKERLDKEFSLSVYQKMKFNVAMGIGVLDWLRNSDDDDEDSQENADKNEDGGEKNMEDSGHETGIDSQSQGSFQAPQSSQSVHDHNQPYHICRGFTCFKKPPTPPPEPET

[9] = target: T2, Mannose-6-phosphate isomerase (Homo sapiens, UniProt P34949); assay: inhibitors of human PMI, primary screen, biochemical, fluorescence intensity, coupled assay (AID 1209)
T2 sequence (P34949 whole entry): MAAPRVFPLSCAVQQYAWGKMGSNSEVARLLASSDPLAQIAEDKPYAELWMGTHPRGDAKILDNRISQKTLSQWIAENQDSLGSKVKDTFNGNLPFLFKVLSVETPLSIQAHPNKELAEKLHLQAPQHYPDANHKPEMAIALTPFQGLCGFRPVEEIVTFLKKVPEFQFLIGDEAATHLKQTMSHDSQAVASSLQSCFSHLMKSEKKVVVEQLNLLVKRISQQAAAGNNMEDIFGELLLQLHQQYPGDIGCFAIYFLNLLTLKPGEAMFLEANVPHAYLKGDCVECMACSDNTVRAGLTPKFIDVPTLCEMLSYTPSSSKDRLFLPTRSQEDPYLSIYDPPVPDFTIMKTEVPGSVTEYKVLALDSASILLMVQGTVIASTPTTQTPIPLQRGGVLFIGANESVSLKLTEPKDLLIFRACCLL

[10] = target: T2, Mannose-6-phosphate isomerase; assay: human PMI inhibitors, high substrate, primary screen, biochemical, fluorescence intensity, high mannose 6-phosphate (AID 1220)
[11] = target: T2, Mannose-6-phosphate isomerase; assay: PMI enzyme inhibitors, confirmation, biochemical, fluorescence intensity (AID 1535)
[12] = target: DNA dC->dU-editing enzyme APOBEC-3A (Homo sapiens, UniProt P31941); assay: APOBEC3A DNA deaminase inhibitors, dose response, biochemical (AID 504722); assay type: functional
Sequence of DNA dC->dU-editing enzyme APOBEC-3A (P31941 whole entry): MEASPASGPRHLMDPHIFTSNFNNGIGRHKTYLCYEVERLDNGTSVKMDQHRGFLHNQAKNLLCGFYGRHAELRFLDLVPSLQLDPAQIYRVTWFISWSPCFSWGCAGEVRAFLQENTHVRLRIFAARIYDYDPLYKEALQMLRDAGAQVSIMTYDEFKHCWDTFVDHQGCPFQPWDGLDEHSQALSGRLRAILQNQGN

[13] = target: Glucose-6-phosphate 1-dehydrogenase (Homo sapiens, UniProt P11413); assay: human G6PD enzyme inhibitors, dose response, selectivity assay for P. falciparum G6PD inhibitor project, biochemical, fluorescence (AID 504792); assay type: functional
Sequence of Glucose-6-phosphate 1-dehydrogenase (P11413 whole entry): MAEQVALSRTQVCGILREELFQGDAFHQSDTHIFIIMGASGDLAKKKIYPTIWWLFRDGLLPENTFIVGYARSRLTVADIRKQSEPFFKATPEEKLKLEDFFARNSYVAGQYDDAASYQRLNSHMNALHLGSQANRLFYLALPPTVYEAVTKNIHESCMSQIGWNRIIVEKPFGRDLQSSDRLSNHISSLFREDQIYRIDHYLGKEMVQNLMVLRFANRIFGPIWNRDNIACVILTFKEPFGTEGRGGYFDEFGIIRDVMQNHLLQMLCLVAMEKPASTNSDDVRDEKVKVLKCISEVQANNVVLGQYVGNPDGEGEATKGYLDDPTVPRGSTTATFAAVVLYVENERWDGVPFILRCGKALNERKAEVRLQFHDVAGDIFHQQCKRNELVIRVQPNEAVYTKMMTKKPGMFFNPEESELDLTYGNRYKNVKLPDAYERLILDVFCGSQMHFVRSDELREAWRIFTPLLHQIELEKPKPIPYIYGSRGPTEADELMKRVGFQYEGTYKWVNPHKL

[14] = THP-1 cell cytotoxicity, dose response, cytotoxicity control for non-replicating M. tuberculosis project (AID 489025); assay type: functional
Phosphomannomutase 2 = Phosphomannomutase 2 (Homo sapiens, UniProt O15305); assay: Counter screen SAR assay for PMM2 inhibitors via a fluorescence intensity assay. [Related pubchem assays (depositor defined):AID1545, AID1574]
Sequence of Phosphomannomutase 2 (O15305 whole entry): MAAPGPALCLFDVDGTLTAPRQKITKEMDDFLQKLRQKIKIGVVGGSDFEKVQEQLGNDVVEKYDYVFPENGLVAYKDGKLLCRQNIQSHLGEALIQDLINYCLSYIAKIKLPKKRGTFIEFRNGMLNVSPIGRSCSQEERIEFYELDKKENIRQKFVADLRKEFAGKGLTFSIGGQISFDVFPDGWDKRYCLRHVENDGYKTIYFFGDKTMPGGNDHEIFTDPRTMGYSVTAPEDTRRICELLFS

[15] = target: DNA dC->dU-editing enzyme APOBEC-3G (Homo sapiens, UniProt Q9HC16); assay: Dose Response confirmation of small molecule APOBEC3G DNA Deaminase Inhibitors via a fluorescence-based single-stranded DNA deaminase assay. [Related pubchem assays (depositor defined):AID493012, AID493028]; assay type: functional
Sequence of DNA dC->dU-editing enzyme APOBEC-3G (Q9HC16 whole entry): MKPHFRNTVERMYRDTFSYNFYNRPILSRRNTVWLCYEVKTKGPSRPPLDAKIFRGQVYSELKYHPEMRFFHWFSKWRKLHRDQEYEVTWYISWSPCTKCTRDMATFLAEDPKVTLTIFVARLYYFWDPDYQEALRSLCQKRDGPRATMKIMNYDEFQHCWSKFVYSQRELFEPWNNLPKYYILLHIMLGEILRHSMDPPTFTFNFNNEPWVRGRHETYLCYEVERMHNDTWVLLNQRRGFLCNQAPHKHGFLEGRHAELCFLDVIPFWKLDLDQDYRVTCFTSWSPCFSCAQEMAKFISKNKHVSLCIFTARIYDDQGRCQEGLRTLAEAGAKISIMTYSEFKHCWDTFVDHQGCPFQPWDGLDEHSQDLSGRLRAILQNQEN

Sequence of Cytochrome P450 2C19 (P33261 whole entry): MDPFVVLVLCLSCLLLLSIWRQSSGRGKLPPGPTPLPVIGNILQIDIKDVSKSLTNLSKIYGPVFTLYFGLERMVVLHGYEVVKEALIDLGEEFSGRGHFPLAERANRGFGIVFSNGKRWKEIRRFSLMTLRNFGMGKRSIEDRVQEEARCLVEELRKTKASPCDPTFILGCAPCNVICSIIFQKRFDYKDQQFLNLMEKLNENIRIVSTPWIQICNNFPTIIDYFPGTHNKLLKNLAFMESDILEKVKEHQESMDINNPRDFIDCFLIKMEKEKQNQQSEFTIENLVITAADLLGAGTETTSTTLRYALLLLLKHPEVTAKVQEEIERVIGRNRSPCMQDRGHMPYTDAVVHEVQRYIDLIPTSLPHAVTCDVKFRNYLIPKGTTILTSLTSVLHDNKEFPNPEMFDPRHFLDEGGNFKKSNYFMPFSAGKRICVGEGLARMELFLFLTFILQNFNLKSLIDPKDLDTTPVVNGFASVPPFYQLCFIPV

CCOc1ccc(/C=C/C(=O)Nc2ccc(OC)cc2[N+](=O)[O-])cc1
AC50 (Cytochrome P450 2C19): 39.8 µM (inconclusive)
IC50 [1]: 6.32 µM (active)
IC50 [2]: 5.84 µM (active)
AC50 (Cytochrome P450 2D6): inconclusive
AC50 (Cytochrome P450 2C9): inconclusive

CCN(C[C@H]1N[C@@](CC)(C(=O)OC)[C@H]2C(=O)N(Cc3ccccc3)C(=O)[C@@H]12)S(=O)(=O)c1ccc(OC)cc1
AC50 [3]: 1.64 µM (active)
AC50 [4]: 3.76 µM (active)
AC50 [5]: 1.89 µM (active)
AC50 [6]: 7.2 µM (active)
EC50 (HEK293 [7]): > 59.6 µM (inactive)
EC50 (HEK293 [8]): > 59.6 µM (inactive)

CCCCSc1nc2c(=S)n(C)c(=O)n(C)c2[nH]1
EC50 (HEK293 [7]): > 59.5 µM (inactive)
EC50 (HEK293 [8]): > 59.5 µM (inactive)

Cc1ccnc(-n2sc3ccccc3c2=O)n1
IC50 (Large T antigen): 12.5 µM (active)
IC50 [9]: 11.2 µM (active)
IC50 [10]: 17.8 µM (active)
IC50 [11]: 4.43 µM (active)
IC50 [12]: > 100 µM (inactive)
IC50 [13]: 36.1 µM (inactive)
CC50 [14]: > 40 µM (active)
IC50 (Phosphomannomutase 2): 65.9 µM (active)
IC50 [15]: 15.4 µM (active)
